In brackets after ≈: the same amount, converted by molar mass. Structures can show the parent of a compound that is named as a salt.

The CC50 is the concentration giving 50% cytotoxicity. One may read the IC50 as the concentration needed to halve the response being measured. Read a low IC50 as higher potency. In general, melting point refers to the temperature, or range, at which the solid turns liquid.

One data set concerns MDCK cells. The experiment in a line: Cytotoxicity, microtetrazolium test (MTT). As to conditions: 48 h, mean ±SD.
Data set [1] is described as follows: Acute oral toxicity, fixed dose method (OECD 420). The note with it: for GHS hazard class: acute oral toxicity in mice, UN GHS classification; for Died / Survived: female BALB/c mice, intragastric.
Data set [2] can be described thus: Cytotoxicity, microtetrazolium test (MTT). As to conditions: dog, MDCK cells, CC50 (MDCK), mean ±SD.
The subject of a further data set is SARS-CoV-2 coronavirus. Briefly: Activity against SARS-CoV-2 coronavirus on U2-OS ACE2 cells (S-Fuse, GFP signal). Type of data set: cell-based. As to conditions: Severe acute respiratory syndrome coronavirus 2, U2OS; SARS-CoV-2, U2-OS ACE2 cells, MOI 0.1, 20 hours.
Another data set relates to U2-OS ACE2 cells. The experiment in a line: Cytotoxicity on U2-OS ACE2 cells (Hoechst signal). As to conditions: 20 hours.

Turning to “Pentandioic acid imidazolylethanamide [Ingavirin, reference compound]”, the “CC50 (MDCK)” value in the data set with MDCK cells is 300 ± 12 µg/mL.
Take `COC(=O)c1c(N(Cc2ccccc2)C(C)=O)sc2c(CN(C)C)c(O)ccc12` [Example 61, Methyl 2-[acetyl(benzyl)amino-7-[(dimethylamino)methyl]-6-hydroxy-1-benzothiophene-3-carboxylate hydrochloride]: in the data set with MDCK cells (hydrochloride), the “CC50 (MDCK)” value was over 300 µg/mL. This molecule also had a GHS hazard class in data set [1] of 4. In data set [1] (300 mg/kg), this molecule had a Died of 0 and a Survived of 4. Moreover, in data set [1] (2000 mg/kg), the Died is recorded as 1 and the Survived is listed as 1.
In the case of `CNC(=O)c1c(N(Cc2ccccc2)C(C)=O)sc2c(Cl)c(O)ccc12` [Example 72, 2-[acetyl(benzyl)amino]-7-chloro-6-hydroxy-N-methyl-1-benzothiophene-3-carboxamide], the CC50 at 48 h in data set [2] was found to be 160 ± 11 µg/mL (≈ 411 µM). Besides, the GHS hazard class in data set [1] turned out to be 5. In data set [1] (2000 mg/kg), this molecule yielded a Died of 0 and a Survived of 4.
In the case of `COC(=O)c1c(N(Cc2ccccc2)C(C)=O)sc2c(CN3CCN(C)CC3)c(O)ccc12` [Example 65, Methyl 2-[acetyl(benzyl)amino-6-hydroxy-7-[(4-methylpiperazin-1-yl)methyl]-1-benzothiophene-3-carboxylate hydrochloride], half-maximal cytotoxicity in data set [2] (CC50 at 48 h) was put at 18.7 ± 1.6 µg/mL. The molecule further returned an IC50 in the data set with SARS-CoV-2 coronavirus of 9.8 µM. In the data set with U2-OS ACE2 cells, the Cytotoxicity entry is recorded as “Non-toxic up to 2500 μM”.
The corresponding values for `CCN(CC)Cc1c(O)ccc2c(C(=O)OC)c(N(Cc3ccccc3)C(C)=O)sc12` [Example 64, hydrochloride] are 148 ± 11 µg/mL, 9.12 µM and “Non-toxic up to 2500 μM”.
In the case of `COC(=O)c1c(N(Cc2ccccc2)C(C)=O)sc2cc(O)ccc12` [Example 4, Methyl 2-[acetyl(benzyl)amino]-6-hydroxy-1-benzothiophene-3-carboxylate], the melting point lay within 165 to 167 °C. In addition, the midpoint of cytotoxicity in data set [2], the CC50 at 48 h, lay at 200 µg/mL (≈ 563 µM). This molecule also had an IC50 in the data set on SARS-CoV-2 coronavirus of 10.6 µM. In addition, the Cytotoxicity result with U2-OS ACE2 cells was “Non-toxic up to 2500 μM”.
As for `COC(=O)c1c(N(Cc2ccccc2F)C(C)=O)sc2c(Cl)c(O)ccc12` [Example 23, Methyl 2-[acetyl(2-fluorobenzyl)amino]-7-chloro-6-hydroxy-1-benzothiophene-3-carboxylate], in data set [2], the half-maximal cytotoxic concentration (CC50) at 48 h was over 300 µg/mL. In data set [1], this molecule had a GHS hazard class of 5. Also, in data set [1] (2000 mg/kg), the Died is recorded as 0 and the Survived is on record as 4.
In data set [2], `COC(=O)c1c(N(Cc2ccc(F)cc2)C(C)=O)sc2c(CN(C)C)c(O)ccc12` [Example 62, Methyl 2-[acetyl(4-fluorobenzyl)amino-7-[(dimethylamino)methyl]-6-hydroxy-1-benzothiophene-3-carboxylate hydrochloride] displayed a CC50 at 48 h of 92 ± 7 µg/mL. Also, inhibition with SARS-CoV-2 coronavirus was half-maximal at 11.3 µM (IC50). For the same molecule, in the data set on U2-OS ACE2 cells, the Cytotoxicity result is reported as “Non-toxic up to 2500 μM”.
`COC(=O)c1c(N(Cc2cccc(F)c2)C(C)=O)sc2c(CN(C)C)c(O)ccc12` [Example 53] yielded a melting point of 142 to 144 °C. In data set [2], this molecule registered a CC50 at 48 h of over 300 µg/mL.
In turn, `COC(=O)c1c(N(Cc2ccccc2C#N)C(C)=O)sc2c(CN(C)C)c(O)ccc12` [Example 60] displayed a melting point of 178 to 182 °C. In data set [2], this molecule had a half-maximal cytotoxic concentration (CC50) at 48 h of over 300 µg/mL.
In the case of `COC(=O)c1c(N(Cc2ccc(F)cc2F)C(C)=O)sc2c(Cl)c(O)ccc12` [Example 29, Methyl 2-[acetyl(2,4-difluorobenzyl)amino]-7-chloro-6-hydroxy-1-benzothiophene-3-carboxylate], the melting point is 205 to 210 °C. In data set [2], this molecule displayed a CC50 at 48 h of over 300 µg/mL.
As for `COC(=O)c1c(N(CCc2ccccc2)C(C)=O)sc2cc(O)ccc12` [Example 36, Methyl 2-[acetyl(2-phenylethyl)amino]-6-hydroxy-1-benzothiophene-3-carboxylate], the melting point was in the range of 190 to 194 °C. Besides, in data set [2], the CC50 at 48 h is over 300 µg/mL.
`COC(=O)c1c(N(Cc2ccc(F)cc2F)C(C)=O)sc2c(CN(C)C)c(O)ccc12` [Example 55] had a melting point of 118 to 122 °C. Further, the CC50 at 48 h in data set [2] is over 300 µg/mL. The molecule also registered a concentration for half-maximal inhibition (IC50) with SARS-CoV-2 coronavirus of 15.6 µM. In the data set on U2-OS ACE2 cells, the Cytotoxicity entry is listed as “Non-toxic up to 2500 μM”.
Take `CCOC(=O)c1c(N(Cc2ccccc2Cl)C(C)=O)sc2c(Cl)c(O)ccc12` [Example 9, Ethyl 2-[acetyl(2-chlorobenzyl)amino]-7-chloro-6-hydroxy-1-benzothiophene-3-carboxylate]: the melting point lay in the range of 174 to 178 °C. This molecule yielded a CC50 at 48 h in data set [2] of 8.3 ± 0.3 µg/mL (≈ 18.9 µM).
`COC(=O)c1c(N(Cc2ccc(C(C)C)cc2)C(C)=O)sc2cc(O)ccc12` [Example 42, Methyl 2-[acetyl(4-isopropylbenzyl)amino]-6-hydroxy-1-benzothiophene-3-carboxylate] showed a melting point of 141 to 145 °C. Moreover, the CC50 at 48 h in data set [2] was determined as 10 µg/mL (≈ 25.2 µM).
`CCOC(=O)c1c(N(Cc2ccccc2)C(C)=O)sc2c(Cl)c(O)ccc12` [Example 1, Ethyl 2-[acetyl(benzyl)amino]-7-chloro-6-hydroxy-1-benzothiophene-3-carboxylate] displayed a melting point of 151 to 155 °C. In data set [2], the 50% cytotoxic concentration (CC50) at 48 h is over 300 µg/mL.
In data set [2], `COC(=O)c1c(N(Cc2ccccc2F)C(C)=O)sc2c(CN(C)C)c(O)ccc12` [Example 52] gave a 50% cytotoxic concentration (CC50) at 48 h of 180 ± 16 µg/mL (≈ 418 µM). Moreover, the GHS hazard class in data set [1] came out at 5. For the same molecule, in data set [1] (2000 mg/kg), the Died is given as 0 and the Survived is 4.
`CNC(=O)c1c(N(Cc2ccccc2)C(C)=O)sc2cc(O)ccc12` [Example 73, 2-[acetyl(benzyl)amino]-6-hydroxy-N-methyl-1-benzothiophene-3-carboxamide] displayed a CC50 at 48 h in data set [2] of over 300 µg/mL. In the data set with SARS-CoV-2 coronavirus, this molecule returned an IC50 of 23 µM. Also, the Cytotoxicity result in the data set on U2-OS ACE2 cells is “Non-toxic up to 2500 μM”. The GHS hazard class in data set [1] is recorded as 5. In data set [1] (2000 mg/kg), this molecule returned a Died of 0 and a Survived of 4.
As for `COC(=O)c1c(N(CCc2ccccc2F)C(C)=O)sc2c(CN(C)C)c(O)ccc12` [Example 56, Methyl 2-{acetyl[2-(2-fluorophenyl)ethyl]amino}-7-[(dimethylamino)methyl]-6-hydroxy-1-benzothiophene-3-carboxylate], the melting point was in the range of 114 to 120 °C. Further, the CC50 at 48 h in data set [2] is over 300 µg/mL.
Taken in the same sequence, the figures for `COC(=O)c1c(N(Cc2ccc(F)cc2)C(C)=O)sc2c(Cl)c(O)ccc12` [Example 27, Methyl 2-[acetyl(4-fluorobenzyl)amino]-7-chloro-6-hydroxy-1-benzothiophene-3-carboxylate] were 233 to 235 °C and 39.8 ± 2.5 µg/mL (≈ 97.6 µM).
As to `CCOC(=O)c1c(CSc2ccccc2)n(C)c2cc(Br)c(O)c(CN(C)C)c12` [Umifenovir, reference compound], in data set [2], it took 16 µg/mL (≈ 33.5 µM) to reach half-maximal cytotoxicity (CC50 at 48 h). Also, in the data set with SARS-CoV-2 coronavirus, the midpoint of inhibition, the IC50, lay at 76 µM. Besides, the Cytotoxicity result with U2-OS ACE2 cells is “Non-toxic up to 2500 μM”.
`COC(=O)c1c(N(Cc2ccccc2)C(C)=O)sc2c(CN(C)C)c(O)ccc12` [Example 50, Methyl 2-[acelyl (benzyl)amino-7-[(dimethylamino)methyl]-6-hydroxy-1-benzothiophene-3-carboxylate] returned a half-maximal cytotoxic concentration (CC50) at 48 h in data set [2] of 182 µg/mL (≈ 441 µM). Moreover, in the data set on SARS-CoV-2 coronavirus, the midpoint of inhibition, the IC50, lay at 9.08 µM. Further, the Cytotoxicity entry in the data set with U2-OS ACE2 cells is recorded as “Non-toxic up to 2500 μM”.
Molecule `COC(=O)c1c(N(Cc2cccc(F)c2)C(C)=O)sc2c(Cl)c(O)ccc12` [Example 25, Methyl 2-[acetyl(3-fluorobenzyl)amino]-7-chloro-6-hydroxy-1-benzothiophene-3-carboxylate] showed a melting point of 152 to 155 °C. In data set [2], this molecule showed a CC50 at 48 h of 25.5 ± 2.7 µg/mL (≈ 62.5 µM).
Taken in the same sequence, the figures for `CC(=O)N(Cc1ccccc1)c1sc2c(Cl)c(O)ccc2c1C(=O)OC(C)C` [Example 7, Isopropyl 2-[acetyl(benzyl)amino]-7-chloro-6-hydroxy-1-benzothiophene-3-carboxylate] were 164 to 168 °C and 2.2 ± 0.3 µg/mL (≈ 5.26 µM).
The corresponding values for `CNC(=O)c1c(N(Cc2ccccc2F)C(C)=O)sc2c(CN(C)C)c(O)ccc12` [Example 84, 2-[acetyl(2-fluorobenzyl)amino]-7-[(dimethylamino)methyl]-6-hydroxy-N-methyl-1-benzothiophene-3-carboxamide] are 122 to 126 °C and over 300 µg/mL.
In the case of `COC(=O)c1c(N(Cc2ccc(C(C)C)cc2)C(C)=O)sc2c(Cl)c(O)ccc12` [Example 41, Methyl 2-[acetyl(4-isopropylbenzyl)amino]-7-chloro-6-hydroxy-1-benzothiophene-3-carboxylate], the melting point is 183 to 186 °C. It took 5 ± 0.5 µg/mL (≈ 11.6 µM) to reach half-maximal cytotoxicity in data set [2] (CC50 at 48 h).
The corresponding values for `CNC(=O)c1c(N(Cc2ccccc2Cl)C(C)=O)sc2c(Cl)c(O)ccc12` [Example 74, 2-[acetyl(2-chlorobenzyl)amino]-7-chloro-6-hydroxy-N-methyl-1-benzothiophene-3-carboxamide] are 200 to 202 °C and 32 ± 4 µg/mL (≈ 75.6 µM).
As to `CC(=O)N(Cc1ccc(F)cc1F)c1sc2c(Cl)c(O)ccc2c1C(=O)O` [Example 71, 2-[acetyl(2,4-difluorobenzyl)amino]-7-chloro-6-hydroxy-1-benzothiophene-3-carboxylic acid], the melting point was in the range of 238 to 242 °C. Further, the 50% cytotoxic concentration (CC50) at 48 h in data set [2] stood at 210 ± 16 µg/mL (≈ 510 µM).
`CCNC(=O)c1c(N(Cc2ccccc2)C(C)=O)sc2cc(O)ccc12` [Example 79, 2-[acetyl(benzyl)amino]-6-hydroxy-N-ethyl-1-benzothiophene-3-carboxamide]: the melting point lay within 138 to 142 °C. This molecule also came in with a half-maximal cytotoxic concentration (CC50) at 48 h in data set [2] of 250 ± 21 µg/mL (≈ 679 µM).

Values taken from patent publication US20240174629A1 (OTCPHARM JSC, priority 2021, published 2024).
